Experimental findings from US20220170859A1, “PARTICLE LABELING REAGENT, PARTICLE DYEING METHOD, AND MICROSCOPIC SYSTEM” (SONY GROUP CORPORATION, priority 2019, published 2022) are described below.

This assay has as its system Jurkat cells. The conditions noted are these: Jurkat cells dyed with 50 μM reagent in PBS; UV 365 nm 10 minutes vs no UV.

Description: 1 mL of Jurkat cells 3.0×10^6 cells/PBS (−), the Jurkat cells being human leukemia T cell lines, was prepared in a 1.5 mL Eppendorf tube, and centrifuged at 200×g for five minutes. The supernatant was removed, and 1 mL of a 50 μM MeNPOC-biotin-sulfo-NHS ester.Na/PBS solution was added thereto. The mixture was shielded from light by an aluminum foil, and allowed to stand at room temperature for 20 minutes. The mixture was centrifuged at 200×g for five minutes, and the supernatant was removed. The residue was resuspended in 1 mL of PBS (−) and centrifuged again at 200×g for five minutes, and the supernatant was removed. PBS (−) was added thereto, and the cell concentration was measured with a cell counter, and then the concentration was adjusted to 1.5×10^5 cells/mL. The cells were added dropwise at 0.1 mL/well to a COC film bottom 96 well plate that had been soaked with 1% BSA overnight, and centrifuged at 120×g for one minute to precipitate the cells on a well bottom surface. Subsequently, the sample was irradiated with UV light from the well bottom surface side for 10 minutes using a UV-LED (LED 365-SPT, Optocode, λp=365 nm, about 17 mW/cm^2). As a comparison, a sample not irradiated with UV light was allowed to stand for 10 minutes. The cell suspension was collected from the wells, and PBS was added thereto to adjust the volume to 0.8 mL. […]

For the substance “MeNPOC-biotin-sulfo-NHS ester sodium salt”, the “fluorescence intensity (adsorption of Alexa Fluor 488 labeled streptavidin)” value is reported as “fluorescence intensity changed depending on presence or absence of UV irradiation”.
